According to publication PMC6060862, “Prediction and characterization of a novel hemocyanin-derived antimicrobial peptide from shrimp Litopenaeus vannamei” (Amino Acids, 2018):
Values after ≈ are worked out from the molar mass of the structure shown. Like-named read-outs stand apart in the source and are kept apart here. Residues, ends and D or L forms follow the SMILES beside them.

Tests used:
Vibrio parahaemolyticus = assay: Minimal inhibitory concentration (MIC); type: cell-based; conditions: Gram negative; bacteria 10^6 CFU/mL in 0.01 M PBS pH 7.6 mixed with equal volume of peptide in PBS, 30 °C 2 h, plated on LB agar 30 °C overnight; triplicate, repeated at least three times
Protocol: (§1) Seven bacteria including Vibrio parahaemolyticus, Vibrio fluvialis, Vibrio alginolyticus, Escherichia coli, Aeromonas hydrophila, Staphylococcus aureus and Streptococcus pyogenes were grown in LB medium at 30 °C and diluted to 10^6 CFU/mL in 0.01 M, pH 7.6 PBS. Peptides were diluted in PBS. The bacteria and diluted peptides were mixed in equal volumes, and then incubated at 30 °C for 2 h. […] Experiments were carried out in triplicate and repeated at least three times. Data are presented as mean ± standard deviation. GraphPad prism 6 was used to analyze the data with the statistical significance determined by one-way ANOVA and Student’s t test, and all experiments were carried out in triplicate.

[1] = test system: seven bacteria (V. parahaemolyticus, V. fluvialis, V. alginolyticus, E. coli, A. hydrophila, S. aureus, S. pyogenes); assay: MIC summarised over the seven bacteria (GB, average MIC, fold change); type: cell-based; conditions: for GB: summary of the MICs over the seven bacteria, footnote b not given; for decrease of antibacterial activity relative to L1: from MICs of Table 3, except for S.pyogenes
Protocol: as §1

Streptococcus pyogenes = type: cell-based
Protocol: as §1

Vibrio fluvialis = type: cell-based
Protocol: as §1

Vibrio alginolyticus = type: cell-based
Protocol: as §1

Staphylococcus aureus = type: cell-based
Protocol: as §1

Escherichia coli = type: cell-based
Protocol: as §1

Aeromonas hydrophila = type: cell-based
Protocol: as §1

[2] = not given; remark: listed apart in the source
[3] = not given; remark: listed apart in the source
[4] = not given; remark: listed apart in the source
[5] = Gram positive, bacteria 10^6 CFU/mL in 0.01 M PBS pH 7.6 mixed with equal volume of peptide in PBS, 30 °C 2 h, plated on LB agar 30 °C overnight, triplicate, repeated at least three times
[6] = Gram negative, bacteria 10^6 CFU/mL in 0.01 M PBS pH 7.6 mixed with equal volume of peptide in PBS, 30 °C 2 h, plated on LB agar 30 °C overnight, triplicate, repeated at least three times

Row | Compound | MIC V. parahaemolyticus (Vibrio parahaemolyticus) [µg/mL] | average MIC relative to the average MIC of L1 ([1]; over the seven bacteria) | GB [1] [µg/mL] | MIC S. pyogenes (Streptococcus pyogenes; 2 h, pH 7.6) [µg/mL] | MIC V. fluvialis (Vibrio fluvialis; 2 h, pH 7.6) [µg/mL] | MIC V. alginolyticus (Vibrio alginolyticus; 2 h, pH 7.6) [µg/mL] | MIC S. aureus (Staphylococcus aureus; 2 h, pH 7.6) [µg/mL] | MIC E. coli (Escherichia coli; 2 h, pH 7.6) [µg/mL] | MIC A. hydrophila (Aeromonas hydrophila; 2 h, pH 7.6) [µg/mL] | MIC S. pyogenes (Streptococcus pyogenes; [5]) [µg/mL] | MIC V. fluvialis (Vibrio fluvialis; [6]) [µg/mL] | MIC V. alginolyticus (Vibrio alginolyticus; [6]) [µg/mL] | MIC S. aureus (Staphylococcus aureus; [5]) [µg/mL] | MIC E. coli (Escherichia coli; [6]) [µg/mL] | MIC A. hydrophila (Aeromonas hydrophila; Gram negative (Table 2), bacteria 10^6 CFU/mL in 0.01 M PBS pH 7.6 mixed with equal volume of peptide in PBS, 30 °C 2 h, plated on LB agar 30 °C overnight, triplicate, repeated at least three times) [µg/mL] | decrease of antibacterial activity relative to L1 [1] | α-helical content [%] | β-turns content [2] [%] | random coil content [3] [%] | β-strand content [4] [%]
1 | CC(C)C[C@H](NC(=O)[C@H](CCCCN)NC(=O)[C@H](CCC(N)=O)NC(=O)[C@@H](NC(=O)[C@H](C)NC(=O)[C@H](CCC(=O)O)NC(=O)CNC(=O)CN)C(C)C)C(=O)N[C@H](C(=O)N[C@@H](CCCNC(=N)N)C(=O)N[C@@H](CCC(=O)O)C(=O)N[C@H](C(=O)N[C@@H](CCCCN)C(=O)N[C@@H](CC(=O)O)C(=O)NCC(N)=O)C(C)C)C(C)C [L2] (H-GGEAVQKLVREVKDG-NH2; N-terminus and C-terminus assumed) | 250 (≈ 158 µM) | tenfold | 205.1 | 250 (≈ 158 µM) | 125 (≈ 78.9 µM) | 125 (≈ 78.9 µM) | > 250 | > 250 | 250 (≈ 158 µM) | – | – | – | – | – | – | – | – | – | – | –
2 | NC[C@H]1O[C@H](O[C@H]2[C@H](O)[C@@H](O[C@H]3O[C@H](CO)[C@@H](O)[C@H](N)[C@H]3O)[C@H](N)C[C@@H]2N)[C@H](O)[C@@H](O)[C@@H]1O [Kanamycin, reference compound] | 1 (≈ 2.06 µM) | – | 1.1 | – | – | – | – | – | – | 1 (≈ 2.06 µM) | 1 (≈ 2.06 µM) | 0.5 (≈ 1.03 µM) | 2 (≈ 4.13 µM) | 2 (≈ 4.13 µM) | 1 (≈ 2.06 µM) | – | – | – | – | –
3 | CC[C@H](C)[C@H](NC(=O)[C@H](CCCCN)NC(=O)[C@H](Cc1c[nH]cn1)NC(=O)[C@H](CC(C)C)NC(=O)[C@H](CC(C)C)NC(=O)[C@H](Cc1ccccc1)NC(=O)[C@H](CC(N)=O)NC(=O)[C@@H](N)C(C)C)C(=O)N[C@@H](Cc1ccc(O)cc1)C(=O)NCC(=O)N[C@@H](CC(N)=O)C(=O)N[C@H](C(=O)N[C@@H](CCCNC(=N)N)C(=O)N[C@@H](CC(=O)O)C(=O)N[C@@H](CO)C(N)=O)[C@@H](C)CC [M3] (H-VNFLLHKIYGNIRDS-NH2) | 31.2 (≈ 17.4 µM) | – | 14.2 | 62.5 (≈ 35 µM) | 62.5 (≈ 35 µM) | 3.9 (≈ 2.18 µM) | 62.5 (≈ 35 µM) | 3.9 (≈ 2.18 µM) | 3.9 (≈ 2.18 µM) | – | – | – | – | – | – | no change | – | – | – | –
4 | CC[C@H](C)[C@H](NC(=O)[C@H](CCCNC(=N)N)NC(=O)[C@H](CO)NC(=O)[C@H](CCC(=O)O)NC(=O)[C@@H](NC(=O)[C@@H](NC(=O)[C@H](CC(C)C)NC(=O)[C@H](CC(C)C)NC(=O)[C@H](CC(=O)O)NC(=O)[C@H](CCCNC(=N)N)NC(=O)[C@@H](NC(=O)[C@H](CCCNC(=N)N)NC(=O)[C@H](C)NC(=O)[C@@H](NC(=O)CN)C(C)C)[C@@H](C)CC)[C@@H](C)CC)[C@@H](C)CC)C(N)=O [L8] (H-GVARIRDLLIIESRI-NH2; N-terminus and C-terminus assumed) | 250 (≈ 145 µM) | – | 185.8 | 250 (≈ 145 µM) | 250 (≈ 145 µM) | 250 (≈ 145 µM) | 250 (≈ 145 µM) | > 250 | 31.3 (≈ 18.2 µM) | – | – | – | – | – | – | – | – | – | – | –
5 | CC[C@H](C)[C@H](NC(=O)[C@H](CCCCN)NC(=O)[C@H](Cc1c[nH]cn1)NC(=O)[C@H](CC(C)C)NC(=O)[C@H](CC(C)C)NC(=O)[C@H](Cc1ccccc1)NC(=O)[C@H](CC(N)=O)NC(=O)[C@@H](N)C(C)C)C(=O)N[C@@H](Cc1ccc(O)cc1)C(=O)NCC(=O)N[C@@H](CC(N)=O)C(=O)N[C@H](C(=O)N[C@@H](CCCNC(=N)N)C(=O)N[C@@H](Cc1ccc(O)cc1)C(=O)N[C@@H](CO)C(N)=O)[C@@H](C)CC [L1] (H-VNFLLHKIYGNIRYS-NH2) | 31.2 (≈ 17 µM) | – | – | 62.5 (≈ 34 µM) | 62.5 (≈ 34 µM) | 3.9 (≈ 2.12 µM) | 62.5 (≈ 34 µM) | 3.9 (≈ 2.12 µM) | 3.9 (≈ 2.12 µM) | – | – | – | – | – | – | – | 34.6 | 24 | 33.4 | 11.2
6 | CC[C@H](C)[C@H](NC(=O)[C@H](CC(N)=O)NC(=O)[C@H](CC(=O)O)NC(=O)[C@H](Cc1ccc(O)cc1)NC(=O)[C@@H](NC(=O)[C@H](CCCCN)NC(=O)[C@H](Cc1c[nH]cn1)NC(=O)[C@H](CC(C)C)NC(=O)[C@H](CC(C)C)NC(=O)[C@H](Cc1ccccc1)NC(=O)[C@H](CC(N)=O)NC(=O)[C@@H](N)C(C)C)[C@@H](C)CC)C(=O)N[C@@H](CCCNC(=N)N)C(=O)N[C@@H](Cc1ccc(O)cc1)C(=O)N[C@@H](CO)C(N)=O [M2] (H-VNFLLHKIYDNIRYS-NH2) | 62.5 (≈ 33 µM) | – | 69.0 | 62.5 (≈ 33 µM) | > 250 | > 250 | > 250 | 7.8 (≈ 4.12 µM) | 15.6 (≈ 8.24 µM) | – | – | – | – | – | – | 2- to 64 fold | – | – | – | –
7 | CC[C@H](C)[C@H](NC(=O)[C@H](Cc1c[nH]cn1)NC(=O)[C@H](C)NC(=O)[C@@H](NC(=O)[C@H](CC(N)=O)NC(=O)[C@H](Cc1c[nH]cn1)NC(=O)[C@H](CC(C)C)NC(=O)[C@H](C)NC(=O)CNC(=O)[C@H](Cc1ccc(O)cc1)NC(=O)[C@@H](N)Cc1ccc(O)cc1)[C@@H](C)O)C(=O)N[C@H](C(=O)N[C@@H](CC(C)C)C(=O)NCC(=O)N[C@@H](CCCNC(=N)N)C(N)=O)C(C)C [L12] (H-YYGALHNTAHIVLGR-NH2) | 250 (≈ 148 µM) | – | 125.0 | 125 (≈ 74.2 µM) | 250 (≈ 148 µM) | 15.6 (≈ 9.26 µM) | > 250 | 125 (≈ 74.2 µM) | 125 (≈ 74.2 µM) | – | – | – | – | – | – | – | – | – | – | –
8 | CC[C@H](C)[C@H](NC(=O)[C@H](C)NC(=O)[C@H](CC(=O)O)NC(=O)[C@H](CCCNC(=N)N)NC(=O)[C@@H](NC(=O)[C@@H](N)CCCNC(=N)N)[C@@H](C)CC)C(=O)N[C@@H](C)C(=O)N[C@@H](Cc1c[nH]cn1)C(=O)NCC(=O)N[C@@H](Cc1ccc(O)cc1)C(=O)N[C@H](C(=O)N[C@H](C(=O)N[C@@H](CC(=O)O)C(=O)N[C@@H](CCCCN)C(=O)N[C@H](C(N)=O)C(C)C)C(C)C)[C@@H](C)CC [L10] (H-RIRDAIAHGYIVDKV-NH2) | 250 (≈ 145 µM) | – | 113.3 | 125 (≈ 72.5 µM) | 125 (≈ 72.5 µM) | 31.3 (≈ 18.1 µM) | > 250 | > 250 | 31.3 (≈ 18.1 µM) | – | – | – | – | – | – | – | – | – | – | –
9 | CC[C@H](C)[C@H](NC(=O)[C@H](CCCCN)NC(=O)[C@H](Cc1c[nH]cn1)NC(=O)[C@H](CC(C)C)NC(=O)[C@H](CC(C)C)NC(=O)CNC(=O)[C@H](CC(N)=O)NC(=O)[C@@H](N)C(C)C)C(=O)N[C@@H](Cc1ccc(O)cc1)C(=O)NCC(=O)N[C@@H](CC(N)=O)C(=O)N[C@H](C(=O)N[C@@H](CCCNC(=N)N)C(=O)N[C@@H](Cc1ccc(O)cc1)C(=O)N[C@@H](CO)C(N)=O)[C@@H](C)CC [M1] (H-VNGLLHKIYGNIRYS-NH2) | 62.5 (≈ 35.8 µM) | – | – | 15.6 (≈ 8.93 µM) | 250 (≈ 143 µM) | 250 (≈ 143 µM) | > 250 | 15.6 (≈ 8.93 µM) | 15.6 (≈ 8.93 µM) | – | – | – | – | – | – | 2- to 64 fold | – | – | – | –
